Where two headings read alike, the source gives them in different places.
What was measured:
Panc-1 human cell line = assay: Cytotoxicity on Panc-1, xCELLigence SP, IC50 after 24 h, 48 h, 72 h and 96 h (Example 22)
[1] = tested on: PANC-1 (human pancreatic carcinoma) cells; assay: Impedance-based viability assay (xCELLigence SP), long treatment; type: cell-based; conditions: 72 h, read-out: cytotoxicity expressed in IC50, PANC-1
Excerpt: (Gibco®/Invitrogen Corporation, New York, NY, USA).
Data obtained from each experiment represent mathematical averages.

Detroit 562 cell line = assay: Additional in vitro IC50 tests (Table 3); type: cell-based; conditions: Homo sapiens
In short: (§1)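 Cells at 1000/well, viability by CellTiter-Glo luminescence after compound treatment, as % of untreated control. IC50 from variable-slope log(inhibitor) vs response nonlinear regression.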

EBC-1 cell line = assay: Additional in vitro IC50 tests (Table 3); type: cell-based; conditions: Homo sapiens
In short: as §1

SCC-25 cell line = assay: Additional in vitro IC50 tests (Table 3); type: cell-based; conditions: Homo sapiens
In short: as §1

H2228 cell line = assay: Additional in vitro IC50 tests (Table 3); type: cell-based; conditions: Homo sapiens, NCI-H2228
In short: as §1

Fadu cell line = assay: Additional in vitro IC50 tests (Table 3); type: cell-based; conditions: Homo sapiens
In short: as §1

[2] = tested on: Panc1 pancreatic cancer cell line; assay: CellTiter-Glo IC50 (Example 19); type: cell-based; conditions: Homo sapiens, PANC-1, 72 h
In short: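 1000 cells/well; 37° C, 5% CO2 humidified. Post-treatment: medium off, CellTiter-Glo on, luminescence read. % untreated control → variable-slope nonlinear fit → IC50.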

[3] = tested on: MIA PaCa-2 (pancreas, carcinoma) cells; assay: Cell viability assay, CellTiter-Glo (Example 21); type: cell-based, human; conditions: 72 h treatment
In short: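 MIA PaCa-2 pancreatic carcinoma cells were seeded at 1000 cells/well in flat-bottomed white 96 well plates (BRANDplates®, cat. no.: 781965) and treated with compound. Viability was then determined with the CellTiter-Glo® luminescent cell viability assay (Promega) following the manufacturer's instructions, with luminescence read on a BioTek Synergy 2 Multi-Mode Reader.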

[4] = tested on: SCC-25 (tongue, squamous cell carcinoma) cells; assay: Cell viability assay, CellTiter-Glo (Example 21); type: cell-based, human; conditions: 72 h treatment
In short: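 SCC-25 tongue squamous cell carcinoma cells were seeded at 1000 cells/well in flat-bottomed white 96 well plates, treated with compound, and viability was then determined with the CellTiter-Glo luminescent assay (Promega) following the manufacturer's instructions. Luminescence was read on a BioTek Synergy 2 Multi-Mode Reader.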

[5] = tested on: MDA-MB-453 (breast, carcinoma) cells; assay: Cell viability assay, CellTiter-Glo (Example 21); type: cell-based, human; conditions: 72 h treatment
In short: (§2)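 Seeding density per line: Panc-1 750, FaDu 1000, Detroit 562 and MDA-MB-453 1500 cells/well. Viability after treatment read by CellTiter-Glo luminescence; dose-response curves fitted by four-parameter variable-slope non-linear regression.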

[6] = tested on: Panc-1 (pancreas, carcinoma) cells; assay: Cell viability assay, CellTiter-Glo (Example 21); type: cell-based, human; conditions: 72 h treatment
In short: as §2

[7] = tested on: LNCaP (prostate, carcinoma) cells; assay: Cell viability assay, CellTiter-Glo (Example 21); type: cell-based, human; conditions: 72 h
In short: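 LNCaP prostate carcinoma cell viability was assessed with the CellTiter-Glo® luminescent assay (Promega), following the manufacturer's instructions. Cells were seeded at 1500 cells/well into flat-bottomed white 96 well plates, treated, and then luminescence was read on a BioTek Synergy 2 Multi-Mode Reader. Dose-response curves were fitted in GraphPad Prism 8.4.2 by four-parameter variable-slope non-linear regression.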

[8] = tested on: FaDu (pharynx, squamous cell carcinoma) cells; assay: Cell viability assay, CellTiter-Glo (Example 21); type: cell-based, human; conditions: 72 h treatment
In short: as §2

[9] = tested on: DU 145 (prostate, carcinoma) cells; assay: Cell viability assay, CellTiter-Glo (Example 21); type: cell-based, human; conditions: 72 h
In short: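 DU 145 cancer cell viability was assessed with the CellTiter-Glo® luminescent assay (Promega, Madison, WI, USA), following the manufacturer's instructions. Cells were seeded at 1000 cells/well in flat-bottomed white 96 well plates, and after treatment luminescence was read on a BioTek Synergy 2 Multi-Mode Reader.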

[10] = tested on: MDA-MB-231 (breast, adenocarcinoma) cells; assay: Cell viability assay, CellTiter-Glo (Example 21); type: cell-based, human; conditions: 72 h treatment
In short: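 MDA-MB-231 breast adenocarcinoma cells were seeded at 1500 cells/well in flat-bottomed white 96 well plates (BRANDplates®, cat. no.: 781965). Following compound exposure, viability was assessed with the CellTiter-Glo® luminescent assay (Promega) following the manufacturer's protocol, and luminescence was read on a BioTek Synergy 2 Multi-Mode Reader.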

[11] = tested on: Detroit 562 (pharynx, carcinoma) cells; assay: Cell viability assay, CellTiter-Glo (Example 21); type: cell-based, human; conditions: 72 h treatment
In short: as §2

[12] = tested on: EBC-1 (lung, squamous cell carcinoma) cells; assay: Cell viability assay, CellTiter-Glo (Example 21); type: cell-based, human; conditions: 72 h treatment
In short: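 EBC-1 lung squamous cell carcinoma cells were seeded at 1000 cells/well in flat-bottomed white 96 well plates. After compound treatment, viability was measured with the CellTiter-Glo luminescent assay following the manufacturer's instructions, and luminescence was read on a BioTek Synergy 2 Multi-Mode microplate reader.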

[13] = tested on: PC-3 (prostate, adenocarcinoma) cells; assay: Cell viability assay, CellTiter-Glo (Example 21); type: cell-based, human; conditions: 72 h treatment
In short: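 PC-3 prostate adenocarcinoma cells were seeded at 1000 cells/well in flat-bottomed white 96 well plates and treated with compounds. Viability was then determined with the CellTiter-Glo® luminescent assay (Promega) following the manufacturer's instructions, with luminescence read on a BioTek Synergy 2 Multi-Mode Reader.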

[14] = tested on: Capan-1 (pancreas, adenocarcinoma) cells; assay: Cell viability assay, CellTiter-Glo (Example 21); type: cell-based, human; conditions: 72 h treatment
In short: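 Capan-1 cells were seeded at 1000 cells/well in flat-bottomed white 96 well plates (BRANDplates®), with density optimized for cell size and growth rate. Following compound treatment, viability was measured with the CellTiter-Glo® luminescent assay (Promega) per the manufacturer's instructions, reading luminescence on a BioTek Synergy 2 Multi-Mode Reader.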

Structure (SMILES): O=C1C2=C(CCN(Cc3ccccc3)C2)N2CCN=C2N1Cc1ccc(C(F)(F)F)cc1 [I/1, reference compound]
- IC50 (Panc-1 human cell line; PANC-1, 72 h, read-out: IC50 (72 h) [nM]): 274 ± 15.9 nM
- IC50 (Panc-1 human cell line; PANC-1, 96 h, read-out: IC50 (96 h) [nM]): 185 ± 44.4 nM
- IC50 [1]: 48 nM
- IC50 (Detroit 562 cell line): 32 nM
- IC50 (EBC-1 cell line): 76 nM
- IC50 (SCC-25 cell line): 166 nM
- IC50 (H2228 cell line): 105 nM
- IC50 (Fadu cell line): 90 nM
- IC50 [2]: 74 nM
- MIA PaCa-2 (pancreas, carcinoma) cell viability (% of control) ([3]; 3.7 nM): 105.7 ± 8.5 % of control
- MIA PaCa-2 (pancreas, carcinoma) cell viability (% of control) ([3]; 11.1 nM): 108.5 ± 11.2 % of control
- MIA PaCa-2 (pancreas, carcinoma) cell viability (% of control) ([3]; 100 nM): 43.4 ± 13.5 % of control
- MIA PaCa-2 (pancreas, carcinoma) cell viability (% of control) ([3]; 300 nM): 17.3 ± 8.8 % of control
- SCC-25 (tongue, squamous cell carcinoma) cell viability (% of control) ([4]; 3.7 nM): 108.5 ± 8.6 % of control
- SCC-25 (tongue, squamous cell carcinoma) cell viability (% of control) ([4]; 11.1 nM): 105.5 ± 12.7 % of control
- SCC-25 (tongue, squamous cell carcinoma) cell viability (% of control) ([4]; 100 nM): 76.7 ± 19.9 % of control
- SCC-25 (tongue, squamous cell carcinoma) cell viability (% of control) ([4]; 300 nM): 37.6 ± 4.3 % of control
- MDA-MB-453 (breast, carcinoma) cell viability (% of control) ([5]; 3.7 nM): 111.0 ± 7.3 % of control
- MDA-MB-453 (breast, carcinoma) cell viability (% of control) ([5]; 11.1 nM): 110.8 ± 2.3 % of control
- MDA-MB-453 (breast, carcinoma) cell viability (% of control) ([5]; 100 nM): 37.9 ± 1.3 % of control
- MDA-MB-453 (breast, carcinoma) cell viability (% of control) ([5]; 300 nM): 32.5 ± 0.5 % of control
- Panc-1 (pancreas, carcinoma) cell viability (% of control) ([6]; 3.7 nM): 105.8 ± 0.5 % of control
- Panc-1 (pancreas, carcinoma) cell viability (% of control) ([6]; 11.1 nM): 104.6 ± 7.2 % of control
- Panc-1 (pancreas, carcinoma) cell viability (% of control) ([6]; 100 nM): 81.8 ± 8.1 % of control
- Panc-1 (pancreas, carcinoma) cell viability (% of control) ([6]; 300 nM): 56.9 ± 2.4 % of control
- LNCaP cell viability ([7]; 3.7 nM): 98.6 ± 5.7 % of control
- LNCaP cell viability ([7]; 11.1 nM): 101.4 ± 3.3 % of control
- LNCaP cell viability ([7]; 100 nM): 28.1 ± 1.7 % of control
- LNCaP cell viability ([7]; 300 nM): 15.2 ± 1.7 % of control
- FaDu (pharynx, squamous cell carcinoma) cell viability (% of control) ([8]; 3.7 nM): 102.4 ± 7.4 % of control
- FaDu (pharynx, squamous cell carcinoma) cell viability (% of control) ([8]; 11.1 nM): 98.8 ± 4.7 % of control
- FaDu (pharynx, squamous cell carcinoma) cell viability (% of control) ([8]; 100 nM): 46.9 ± 5.6 % of control
- FaDu (pharynx, squamous cell carcinoma) cell viability (% of control) ([8]; 300 nM): 25.6 ± 5.3 % of control
- DU 145 cell viability ([9]; 3.7 nM): 99.0 ± 4.6 % of control
- DU 145 cell viability ([9]; 11.1 nM): 101.3 ± 4.3 % of control
- DU 145 cell viability ([9]; 100 nM): 17.5 ± 4.2 % of control
- DU 145 cell viability ([9]; 300 nM): 8.1 ± 2.2 % of control
- MDA-MB-231 (breast, adenocarcinoma) cell viability (% of control) ([10]; 3.7 nM): 101.0 ± 4.4 % of control
- MDA-MB-231 (breast, adenocarcinoma) cell viability (% of control) ([10]; 11.1 nM): 97.9 ± 1.1 % of control
- MDA-MB-231 (breast, adenocarcinoma) cell viability (% of control) ([10]; 100 nM): 87.9 ± 4.4 % of control
- MDA-MB-231 (breast, adenocarcinoma) cell viability (% of control) ([10]; 300 nM): 56.8 ± 2.1 % of control
- Detroit 562 (pharynx, carcinoma) cell viability (% of control) ([11]; 3.7 nM): 104.1 ± 4.8 % of control
- Detroit 562 (pharynx, carcinoma) cell viability (% of control) ([11]; 11.1 nM): 104.0 ± 17.2 % of control
- Detroit 562 (pharynx, carcinoma) cell viability (% of control) ([11]; 100 nM): 35.8 ± 14.4 % of control
- Detroit 562 (pharynx, carcinoma) cell viability (% of control) ([11]; 300 nM): 32.0 ± 5.0 % of control
- EBC-1 (lung, squamous cell carcinoma) cell viability (% of control) ([12]; 3.7 nM): 98.8 ± 5.8 % of control
- EBC-1 (lung, squamous cell carcinoma) cell viability (% of control) ([12]; 11.1 nM): 110.1 ± 11.9 % of control
- EBC-1 (lung, squamous cell carcinoma) cell viability (% of control) ([12]; 100 nM): 43.4 ± 6.8 % of control
- EBC-1 (lung, squamous cell carcinoma) cell viability (% of control) ([12]; 300 nM): 24.2 ± 2.1 % of control
- PC-3 (prostate, adenocarcinoma) cell viability (% of control) ([13]; 3.7 nM): 106.0 ± 2.8 % of control
- PC-3 (prostate, adenocarcinoma) cell viability (% of control) ([13]; 11.1 nM): 102.4 ± 3.7 % of control
- PC-3 (prostate, adenocarcinoma) cell viability (% of control) ([13]; 100 nM): 60.4 ± 5.2 % of control
- PC-3 (prostate, adenocarcinoma) cell viability (% of control) ([13]; 300 nM): 33.3 ± 3.3 % of control
- Capan-1 (pancreas, adenocarcinoma) cell viability (% of control) ([14]; 3.7 nM): 100.3 ± 4.0 % of control
- Capan-1 (pancreas, adenocarcinoma) cell viability (% of control) ([14]; 11.1 nM): 99.2 ± 3.8 % of control
- Capan-1 (pancreas, adenocarcinoma) cell viability (% of control) ([14]; 100 nM): 88.1 ± 4.2 % of control
- Capan-1 (pancreas, adenocarcinoma) cell viability (% of control) ([14]; 300 nM): 36.8 ± 3.4 % of control

From patent US20230295162A1 (EÖTVÖS LORÁND TUDOMÁNYEGYETEM, priority 2020, published 2023)
